Experimental data taken from patent publication US20020037872A1, “N6 heterocyclic 5' modified adenosine derivatives” (CV Therapeutics, Inc., priority 1999, published 2002).

Assays:
A1 receptor = target: T1, A1 receptor (Mesocricetus auratus, UniProt A0A1U8BVR4); experiment: Competitive binding assay, DDT1 cell membranes, [3H]CCPA; set-up: species or system hamster; settings: [3H]CCPA 2 nM, DDT1 cell membranes; read-out: Ki-DDT1 cell membrane
T1 construct: endogenous in cells; host or cells: DDT1 (DDT1 MF-2) hamster vas deferens smooth muscle cells
T1 sequence (A0A1U8BVR4 1-326): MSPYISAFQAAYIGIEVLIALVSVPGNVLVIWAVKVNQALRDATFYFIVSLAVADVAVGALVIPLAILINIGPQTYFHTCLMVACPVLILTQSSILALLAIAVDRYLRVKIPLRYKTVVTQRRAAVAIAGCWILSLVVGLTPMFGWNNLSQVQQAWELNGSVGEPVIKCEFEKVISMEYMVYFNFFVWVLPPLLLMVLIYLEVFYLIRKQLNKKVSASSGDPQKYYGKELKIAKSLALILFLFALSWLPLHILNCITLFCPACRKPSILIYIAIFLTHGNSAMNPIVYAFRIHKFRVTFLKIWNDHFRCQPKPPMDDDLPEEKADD
Experimental: Cells were subcultured twice weekly by dispersion in Hank's Balanced Salt Solution (HBSS) without the divalent cations and containing 1 mM EDTA. The cells were then seeded in growth medium at a density of 1.2×10^5 cells per plate and experiments were performed 4 days later at approximately one day preconfluence.
(§1) Attached cells were washed twice with HBSS (2×10 ml), scraped free of the plate with the aid of a rubber policeman in 5 ml of 50 mM Tris-HCI buffer pH 7.4 at 4° C. and the suspension homogenized for 10 s. The suspension was then centrifuged at 27,000×g for 10 min. The pellet was resuspended in homogenization buffer by vortexing and centrifuged as described above. The final pellet was resuspended in 1 vol of 50 mM Tris-HCI buffer pH 7.4 containing 5 mM MgCl2 for A1 AdoR assays. For the [^35S]GTPγS binding assay the final pellet was resuspended in 50 mM Tris-HCI pH 7.4 containing 5 mM MgCl2, 100 mM NaCl and 1 mM dithiothreitol. This membrane suspension was then placed in liquid nitrogen for 10 min, thawed and used for assays.
Competitive Binding Assay Pig striatum were prepared by homogenation in 50 mM Tris buffer (5× volume of tissue mass pH=7.4). After centrifilgation at 19,000 rpm for 25 minutes at 4° C., the supernatant was discarded, and the process was repeated twice. Compositions of this invention were assayed to determine their affinity for the A1 receptor in a pig striatum membrane prep or a DDT, membrane prep. Briefly, 0.2 mg of pig striatal membranes or DDT, cell membranes were treated with adenosine deaminase and 50 mM Tris buffer (pH=7.4) followed by mixing. To the pig membranes was added 2 μL of serially diluted DMSO stock solution of the compounds of this invention at concentrations ranging from 100 microM to 10 nM. The control received 2 microL of DMSO alone, then the antagonist [^3H] 8-cyclopentylxanthine (CPX) for pig striatum or the agonist [^3H] 2-chloro-6-cyclopentyladenosine (CCPA) for DDT, membranes in Tris buffer (50 mnM, pH of 7.4) was added to achieve a final concentration of 2 nM. After incubation at 23 C for 2 h, the solutions were filtered using a membrane harvester using multiple washing of the membranes (3×). The filter disks were counted in scintillation cocktail affording the amount of displacement of triated CPX or by the competitive binding compositions of this invention. In the case of the DDT1 cell membranes, some of the determinations of binding affinity (Ki) were made in the presence of Gpp(NH)p as noted in Table 1 (note: Gpp(NH)p shifts the receptor to a low affinity form). Greater than a 5 point curve was used to generate Ki's and the number of experiments is indicated in the column marked in Table 1 below.

A1 adenosine receptor [1] = target: T2, A1 adenosine receptor (Mesocricetus auratus, UniProt A0A1U8BVR4); experiment: [35S]GTPγS binding assay, A1-agonist stimulated; format: biochemical, hamster; settings: agonist stimulated [35S]GTPγS binding, CPA = 100%
T2 construct: endogenous in cells; host or cells: DDT1 (DDT1 MF-2) hamster vas deferens smooth muscle cells
T2 sequence (A0A1U8BVR4 1-326): T1 sequence (A0A1U8BVR4 1-326)
Experimental: as §1, with “for assays. The protein content was determined by the method of Bradford (1976) using bovine serum albumin as standard.” for “for assays.”
A1-agonist stimulated [^35S]GTPγS binding was determined by a modification of the method described by Giersckik et al. (1991) and Lorenzen et al. (1993). […] Nonspecific binding was determined by the addition of 10 μM GTPγS. […] Previous reports have shown that agonist stimulated [^35S]GTPγS binding was dependent on the presence of GDP (Gierschik et al., 1991; Lorenzen et al., 1993; Traynor & Nahorski, 1995). […] In saturation experiments, 0.5 nM [^35S]GTPγS was incubated with 0.5-1000 nM GTPγS. At the end of the incubation, each suspension was filtered and the retained radioactivity determined as described above.

A1 adenosine receptor [2] = target: T2, A1 adenosine receptor; experiment: cAMP assay (SPA) in DDT1 cells, forskolin-induced cAMP; format: cell-based, hamster; settings: normalized to full agonist CPA, 5 μM forskolin, 50 μM rolipram; for Emax: 10 min
Experimental: A scintillation proximity assay (SPA) using rabbit antibodies directed at cAMP using an added tracer of adenosine 3′,5′-cyclic phosphoric acid 2′-O-succinyl-3-[^125I]iodotyrosine methyl ester and fluoromicrospheres containing anti-rabbit specific antibodies as described by Amersham Pharmacia Biotech (Biotrak cellular communication assays). Briefly, DDT1 cells were cultured in clear bottomed 96 well microtiter plates with opaque wells at concentrations between 10^4 to 10^6 cells per well in 40 μl of HBSS at 37° C. (5% CO2 and 95% humidity). The partial or full A1 agonists (5 μl) of this invention were incubated at various concentrations with the DDT1 cells in the presence of rolipram (50 μM), and 5 μM forskolin for 10 min at 37° C. The cells were immediately lysed by treatment 5 μl of 10% dodecyltrirnethylammonium bromide followed by shaking using rnicroplate shaker. After incubation of the plate for 5 minutes, an imnuunoreagent solution (150 μl containing equal volumes of tracer, antiserum, and SPA fluorospheres) was added to each well followed by sealing the plate. After 15-20 h at 23° C., the amount of bound [^125] cAM to the fluoromicrospheres was determined by counting in a microtitre plate scintillation counter for 2 minutes. Comparison of counts with standard curves generated for cAMP using a similar protocol afforded the cAMP present after cell lysis.

SMILES: CCOC(=O)C1C2C=CC(C2)C1NC(=O)OCC1OC(n2cnc3c(N[C@@H]4CCOC4)ncnc32)C(O)C1O (stereo partly drawn) [Compound 35, Ethyl 3-{[5-{6-[(3R)oxolan-3-yl)amiinolpurin-9-yl}(3S,2R,4R,5R)-3,4-dihydroxyoxolan-2-yl)methoxylcarbonylamino)(2S,3R)bicylo[2.2.]hept-5-ene2-carboxylate]
- Ki (A1 receptor): 1010 nM
- Emax (A1 adenosine receptor [1]): 52%
- Emax (A1 adenosine receptor [2]): -4%

SMILES: COC(=O)CNC(=O)OCC1OC(n2cnc3c(N[C@@H]4CCOC4)ncnc32)C(O)C1O (stereo partly drawn) [Compound 43]
- Ki (A1 receptor): 1700 nM
- Emax (A1 adenosine receptor [1]): 53%
- Emax (A1 adenosine receptor [2]): 28%

SMILES: C=CCNC(=O)OC[C@H]1O[C@@H](n2cnc3c(N[C@@H]4CCOC4)ncnc32)[C@H](O)[C@@H]1O [Compound 41, [(5-{6[((3R)oxolan-3-yl)amino]purin-9-yl}(3S, 2R, 4R, 5R)-3,4-dihydroxyoxolan-2-yl)methoxy]-N-prop2-enylcarboxamide]
- Ki (A1 receptor): 668 nM
- Emax (A1 adenosine receptor [1]): 48%
- Emax (A1 adenosine receptor [2]): 17%

SMILES: O=C(NC1CCCC1OCc1ccccc1)OCC1OC(n2cnc3c(N[C@@H]4CCOC4)ncnc32)C(O)C1O (stereo partly drawn) [Compound 37]
- Ki (A1 receptor): 4240 nM
- GTPγS (A1 adenosine receptor [1]): 30%
- cAMP (A1 adenosine receptor [2]): −6%

SMILES: O=C(NC1CCCC1O)OCC1OC(n2cnc3c(N[C@@H]4CCOC4)ncnc32)C(O)C1O (stereo partly drawn) [Compound 62]
- Ki (A1 receptor): 2190 nM
- Emax (A1 adenosine receptor [1]): 42%
- Emax (A1 adenosine receptor [2]): 23%

SMILES: CCOC(=O)C1C2CCC(C2)C1NC(=O)OCC1OC(n2cnc3c(N[C@@H]4CCOC4)ncnc32)C(O)C1O (stereo partly drawn) [Compound 36, Ethyl 3-{[5-{6-[(3R)oxolan-3-yl)aminolpurin-9-yl}(3S,2R,4R,5R)-3,4-dihydroxyoxolan-2-yl)methoxylcarbonylamino}(2S,3R)bicylo[2.2.1]heptane-2-carboxylate]
- Ki (A1 receptor): 1520 nM
- Emax (A1 adenosine receptor [1]): 41%
- Emax (A1 adenosine receptor [2]): 10%

SMILES: O=C(NC1CCCC1)OCC1OC(n2cnc3c(NC4CCOC4)nc(Cl)nc32)C(O)C1O [Compound 69, [(5-16-[((3R)oxolan-3-yl)amino]-2-chloropurin-9-yl}(3S,2R,4R,5R)-3,4-dihydroxyoxolan-2-yl)methoxy]-N-cyclopentylcarboxamide]
- Ki (A1 receptor): 380 nM
- Emax (A1 adenosine receptor [1]): 50%
- Emax (A1 adenosine receptor [2]): 18%

SMILES: O=C(NC1CCC1)OCC1OC(n2cnc3c(N[C@@H]4CCOC4)ncnc32)C(O)C1O (stereo partly drawn) [Compound 39, [(5-{6[((3R)oxolan-3-yl)amino}purin-9-yl}(3S,2R,4R,5R)3,4-dihydroxyoxolan-2-yl)methoxy]-N-cyclobutylcarboxaniide]
- Ki (A1 receptor): 447 nM
- Emax (A1 adenosine receptor [1]): 67%
- Emax (A1 adenosine receptor [2]): 45%

SMILES: OC1C(COC(=S)NC2CCCC2OCc2ccccc2)OC(n2cnc3c(N[C@@H]4CCOC4)ncnc32)C1O (stereo partly drawn) [Compound 56]
- Ki (A1 receptor): 1240 nM
- GTPγS (A1 adenosine receptor [1]): 52%
- cAMP (A1 adenosine receptor [2]): 43%

SMILES: CCOC(=O)CCNC(=O)OCC1OC(n2cnc3c(N[C@@H]4CCOC4)ncnc32)C(O)C1O (stereo partly drawn) [Compound 42]
- Ki (A1 receptor): 3150 nM
- Emax (A1 adenosine receptor [1]): 47%
- Emax (A1 adenosine receptor [2]): 16%

SMILES: COC(=O)C1CCCC1NC(=O)OCC1OC(n2cnc3c(N[C@@H]4CCOC4)ncnc32)C(O)C1O (stereo partly drawn) [Compound 34]
- Ki (A1 receptor): 3460 nM
- Emax (A1 adenosine receptor [1]): 17%
- Emax (A1 adenosine receptor [2]): -20%

SMILES: O=C(N[C@H]1CCC[C@@H]1O)OC[C@H]1O[C@@H](n2cnc3c(N[C@@H]4CCOC4)ncnc32)[C@H](O)[C@@H]1O [Compound 61, {(5-{6[((3R)oxolan-3-yl)amino]purin-9-yl}(3S,2R,4R,5R)-3,4dihydroxyoxolan-2-yl)methoxy]-N-((1S,2S)-2-hydroxycyclopentyl)carboxamide]
- Ki (A1 receptor): 1570 nM
- Emax (A1 adenosine receptor [1]): 59%
- Emax (A1 adenosine receptor [2]): 53%
